The target of assay [1] is T1, human Cystic Fibrosis Transmembrane Conductance Regulator (CFTR) harboring the ΔF508 mutation (Homo sapiens, UniProt P13569, DEL508-508).
T1 construct: expressed in transfected cells; host or cells: H441 carcinoma line (G418-selected)
The assay is described as follows: H441 cell ΔF508-CFTR-HRP cell surface assay (Emax and EC50). It counts as cell-based. The conditions noted are these: for Emax: NCI-H441, NA = Not active. In a few lines:
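H441 and 41o- bronchial epithelial cells expressing ΔF508-CFTR with an extracellular-loop-4 HRP tag were treated with a 15-point compound series (24.5–0.001 μM) for two nights, H441 at 27° C, 41o- at 37° C with 0.0005 mg/ml doxycycline. Surface HRP luminescence read; % of maximum VX809 signal and EC50 derived.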

The target in assay [2] is T2, CFTR-mediated transepithelial chloride transport in primary human bronchial epithelial cells from a ΔF508 homozygous CF donor (Homo sapiens, UniProt P13569, DEL508-508).
T2 construct: Primary human bronchial epithelial cells from a ΔF508 homozygous CF donor; host or cells: primary CF-HBE cells, ΔF508 homozygous donor
The assay is described as follows: TECC24 recording of CFTR-mediated transepithelial chloride transport in CF-HBE cells (AUC fold over DMSO). It counts as cell-based. The conditions noted are these: test agent 10 μM, 48 hours incubation, AUC of forskolin-stimulated IEQ relative to DMSO. In a few lines: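 Equivalent Cl⁻ current was derived from transepithelial voltage and resistance, and its AUC from forskolin (10 μM) to CFTRinh-172 (20 μM) was divided by the DMSO AUC. Benzamil 10 μM blocked ENaC. Cells were ΔF508-homozygous primary bronchial epithelia pretreated 48 h at 36.5 °C in IL-13 medium.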

pEC50: −log10 of the molar value.

The text below walks through data of US12630498B2 (Genzyme Corporation, priority 2019, dated 2026).

T1 sequence (P13569 with tags, fused parts or gaps DEL508-508): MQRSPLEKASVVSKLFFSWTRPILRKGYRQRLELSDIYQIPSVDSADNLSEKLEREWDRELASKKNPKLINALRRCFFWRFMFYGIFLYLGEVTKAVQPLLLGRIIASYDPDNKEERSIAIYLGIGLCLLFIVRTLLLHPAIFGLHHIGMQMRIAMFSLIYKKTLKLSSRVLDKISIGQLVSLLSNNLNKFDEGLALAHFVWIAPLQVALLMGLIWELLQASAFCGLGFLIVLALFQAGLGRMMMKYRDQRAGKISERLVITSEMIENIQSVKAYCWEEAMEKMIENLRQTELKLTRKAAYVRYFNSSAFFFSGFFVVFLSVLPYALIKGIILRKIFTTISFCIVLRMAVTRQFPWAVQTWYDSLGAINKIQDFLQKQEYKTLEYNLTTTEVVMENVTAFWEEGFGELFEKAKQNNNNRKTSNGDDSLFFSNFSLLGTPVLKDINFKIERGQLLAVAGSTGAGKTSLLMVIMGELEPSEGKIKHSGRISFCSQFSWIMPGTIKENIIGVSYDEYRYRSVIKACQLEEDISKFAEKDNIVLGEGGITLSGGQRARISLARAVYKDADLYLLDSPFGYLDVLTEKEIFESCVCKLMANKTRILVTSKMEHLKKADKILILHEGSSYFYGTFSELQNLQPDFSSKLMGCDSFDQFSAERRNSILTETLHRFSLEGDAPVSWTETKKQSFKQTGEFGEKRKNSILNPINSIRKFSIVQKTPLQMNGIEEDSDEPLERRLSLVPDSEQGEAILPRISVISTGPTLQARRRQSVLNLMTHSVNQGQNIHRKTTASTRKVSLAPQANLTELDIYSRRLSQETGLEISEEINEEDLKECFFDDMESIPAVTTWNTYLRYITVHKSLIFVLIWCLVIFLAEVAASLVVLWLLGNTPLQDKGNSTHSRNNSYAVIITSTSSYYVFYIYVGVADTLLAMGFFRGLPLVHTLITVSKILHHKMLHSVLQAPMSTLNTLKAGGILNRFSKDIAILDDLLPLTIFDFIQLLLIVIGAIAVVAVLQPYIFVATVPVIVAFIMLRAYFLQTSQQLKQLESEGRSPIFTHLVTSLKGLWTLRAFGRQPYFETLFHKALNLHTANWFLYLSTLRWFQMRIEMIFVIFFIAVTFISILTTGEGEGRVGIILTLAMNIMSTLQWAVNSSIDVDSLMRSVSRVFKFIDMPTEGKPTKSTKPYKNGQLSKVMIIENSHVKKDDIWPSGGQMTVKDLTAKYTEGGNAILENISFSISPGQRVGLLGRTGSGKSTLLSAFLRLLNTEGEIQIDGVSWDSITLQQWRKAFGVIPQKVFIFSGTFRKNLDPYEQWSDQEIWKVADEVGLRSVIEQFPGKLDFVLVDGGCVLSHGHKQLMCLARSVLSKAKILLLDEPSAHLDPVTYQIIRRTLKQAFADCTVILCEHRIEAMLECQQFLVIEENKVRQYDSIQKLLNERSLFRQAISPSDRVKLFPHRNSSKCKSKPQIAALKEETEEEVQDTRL
T2 sequence (P13569 with tags, fused parts or gaps DEL508-508): as above

For orientation: pEC50 means the EC50 on a negative log10 scale, so that one unit is a factor of ten. Higher therefore signals a small EC50. As a reminder, the Emax is the size of the effect at its maximum, as opposed to the concentration needed. In assay [1], `CCC(C)(C)[C@H](NC(=O)c1ccc2cc(C)ccc2c1OCc1ccc(C(F)(F)F)cc1)C(=O)O` [Example 225, (2S)-3,3-dimethyl-2-[[6-methyl-1-[[4-(trifluoromethyl)phenyl]methoxy]naphthalene-2-carbonyl]amino]pentanoic Acid] showed a pEC50 of 4.91 and an Emax of 97%. Also, the “TECC24 AUC fold over DMSO @10 μM” value in assay [2] is given as “A (“A” refers to AUC @10 uM >6)”.

In assay [1], `CCCC(C)(C)[C@H](NC(=O)c1ccc2ccc(Cl)cc2c1OCc1ccc(C(F)(F)F)cc1)C(=O)O` [Example 306, (S)-2-(7-chloro-1-((4-(trifluoromethyl)benzyl)oxy)-2-naphthamido)-3,3-dimethylhexanoic Acid] had a negative logarithm of the EC50 (pEC50) of 7.00 and a maximum response (Emax) of 417%. Besides, the “TECC24 AUC fold over DMSO @10 μM” value in assay [2] is “A (“A” refers to AUC @10 uM >6)”.

Consider `O=C(N[C@H](C(=O)O)C1CCCC1)c1ccc2ccccc2c1OCc1ccc(SC(F)(F)F)cc1` [Example 114, (S)-2-cyclopentyl-2-(1-((4-((trifluoromethyl)thio)benzyl)oxy)-2-naphthamido)acetic Acid], for which, in assay [1], the pEC50 was 5.59 and the Emax was 86.1%. The “TECC24 AUC fold over DMSO @10 μM” value in assay [2] was “C (“C” refers to AUC @10 uM <4)”.

In assay [1], `O=C(N[C@@H](Cc1ccccc1)C(=O)O)c1ccc2ccccc2c1OCc1ccc(Cl)c(Cl)c1` [Example 99, (1-((3,4-dichlorobenzyl)oxy)-2-naphthoyl)-L-phenylalanine] showed a negative logarithm of the EC50 (pEC50) of 5.24 and a maximal effect (Emax) of 83.1%. Besides, the “TECC24 AUC fold over DMSO @10 μM” value in assay [2] is “C (“C” refers to AUC @10 uM <4)”.

In assay [1], `CCC(C)(C)[C@H](NC(=O)c1ccc2ccc(C(F)(F)F)cc2c1OCc1ccc(C(F)(F)F)cc1)C(=O)O` [Example 295, (S)-3,3-dimethyl-2-(7-(trifluoromethyl)-1-((4-(trifluoromethyl)benzyl)oxy)-2-naphthamido)pentanoic Acid] gave a negative logarithm of the EC50 (pEC50) of 7.00 and a maximal response (Emax) of 229%. In addition, the “TECC24 AUC fold over DMSO @10 μM” value in assay [2] is on record as “A (“A” refers to AUC @10 uM >6)”.

`O=C(N[C@H](C(=O)O)C(c1ccccc1)c1ccccc1)c1ccc2ccccc2c1OCc1ccc(C(F)(F)C(F)(F)F)cc1` [Example 131, (S)-2-(1-((4-(perfluoroethyl)benzyl)oxy)-2-naphthamido)-3,3-diphenylpropanoic Acid]: in assay [1], the negative logarithm of the EC50 (pEC50) is 7.00 and the maximal response (Emax) came out at 204%. Also, in assay [2], the “TECC24 AUC fold over DMSO @10 μM” value is listed as “C (“C” refers to AUC @10 uM <4)”.

In assay [1], `CCC(C)(C)[C@H](NC(=O)c1ccc2ccc(Cl)cc2c1OCc1ccc(C(F)(F)F)cc1)C(=O)O` [Example 283, (S)-2-(7-chloro-1-((4-(trifluoromethyl)benzyl)oxy)-2-naphthamido)-3,3-dimethylpentanoic Acid] showed a pEC50 of 6.70 and an Emax of 313%. The “TECC24 AUC fold over DMSO @10 μM” value in assay [2] is given as “A (“A” refers to AUC @10 uM >6)”.

In assay [1], `CC(C)(C)[C@H](NC(=O)c1ccc2cc(O)ccc2c1OCc1ccc(C(F)(F)F)cc1)C(=O)O` [Example 59, (S)-2-(6-hydroxy-1-((4-(trifluoromethyl)benzyl)oxy)-2-naphthamido)-3,3-dimethylbutanoic Acid] gave a pEC50 of 5.72 and an Emax of 108%. For the same molecule, the “TECC24 AUC fold over DMSO @10 μM” value in assay [2] is “C (“C” refers to AUC @10 uM <4)”.

Turning to `C=CC(C)(C)C(NC(=O)c1ccc2ccccc2c1OCc1ccc(C(F)(F)F)cc1)C(=O)O` (centres unmarked) [Example 223, 3,3-dimethyl-2-[[1-[[4-(trifluoromethyl)phenyl]methoxy]naphthalene-2-carbonyl]amino]pent-4-enoic Acid], in assay [1], the pEC50 was 6.10 and the maximal response (Emax) was 112%. For the same molecule, in assay [2], the “TECC24 AUC fold over DMSO @10 μM” value is on record as “B (“B” refers to AUC @10 uM between 4-6)”.

In assay [1], `O=C(N[C@H](C(=O)O)C(c1ccccc1)c1ccccc1)c1ccc2ccccc2c1OCc1ccc(C(F)(F)F)c(F)c1` [Example 130, (S)-2-(1-((3-fluoro-4-(trifluoromethyl)benzyl)oxy)-2-naphthamido)-3,3-diphenylpropanoic Acid] showed a pEC50 of 6.70 and an Emax of 196%. Besides, the “TECC24 AUC fold over DMSO @10 μM” value in assay [2] is given as “C (“C” refers to AUC @10 uM <4)”.

Regarding `CCCC(C)(CC)[C@H](NC(=O)c1ccc2ccc(Cl)cc2c1OCc1ccc(C(F)(F)F)cc1)C(=O)O` (stereo partly drawn) [Example 255, (2S)-2-[[7-chloro-1-[[4-(trifluoromethyl)phenyl]methoxy]naphthalene-2-carbonyl]amino]-3-ethyl-3-methyl-hexanoic Acid], in assay [1], the negative-log EC50 (pEC50) was 7.00 and the Emax came out at 324%. The “TECC24 AUC fold over DMSO @10 μM” value in assay [2] was “A (“A” refers to AUC @10 uM >6)”.

In assay [1], `CC1([C@H](NC(=O)c2ccc3ccc(C(F)(F)F)cc3c2OCc2ccc(C(F)(F)F)cc2)C(=O)O)CCC1` [Example 299, (S)-2-(1-methylcyclobutyl)-2-(7-(trifluoromethyl)-1-((4-(trifluoromethyl)benzyl)oxy)-2-naphthamido)acetic Acid] showed a pEC50 of 6.70 and a maximum response (Emax) of 227%. Further, the “TECC24 AUC fold over DMSO @10 μM” value in assay [2] was “A (“A” refers to AUC @10 uM >6)”.

For `CC(C)(C)[C@@H](NC(=O)c1ccc2ccc(Cl)cc2c1OCc1ccc(OC(F)(F)F)cc1)C(=O)O` [Example 285, (R)-2-(7-chloro-1-((4-(trifluoromethoxy)benzyl)oxy)-2-naphthamido)-3,3-dimethylbutanoic Acid], in assay [1], the negative logarithm of the EC50 (pEC50) was 6.10 and the maximum response (Emax) turned out to be 99.1%. For the same molecule, the “TECC24 AUC fold over DMSO @10 μM” value in assay [2] was “C (“C” refers to AUC @10 uM <4)”.

In assay [1], `CC(C)(C)[C@H](NC(=O)c1ccc2ccccc2c1OCc1ccc(C(F)(F)C(F)(F)F)cc1)C(=O)O` [Example 37, (S)-3,3-dimethyl-2-(1-((4-(perfluoroethyl)benzyl)oxy)-2-naphthamido)butanoic Acid] had a negative-log EC50 (pEC50) of 6.52 and a maximal effect (Emax) of 195%. Also, in assay [2], the “TECC24 AUC fold over DMSO @10 μM” value is on record as “C (“C” refers to AUC @10 uM <4)”.

In assay [1], `O=C(N[C@@H](Cc1ccc(C(F)(F)F)cc1)C(=O)O)c1ccc2cc(F)ccc2c1OCc1nc2ccccc2s1` [Example 217, (S)-2-(1-(benzo[d]thiazol-2-ylmethoxy)-6-fluoro-2-naphthamido)-3-(4-(trifluoromethyl)phenyl)propanoic Acid] showed a negative-log EC50 (pEC50) of 4.80 and an Emax of 65.8%. Besides, in assay [2], the “TECC24 AUC fold over DMSO @10 μM” value is “C (“C” refers to AUC @10 uM <4)”.

In assay [1], `CC(C)(C)[C@H](NC(=O)c1ccc2c(F)cccc2c1OCc1ccc(OC(F)(F)F)cc1)C(=O)O` [Example 221, (2S)-2-[[5-fluoro-1-[[4-(trifluoromethoxy)phenyl]methoxy]naphthalene-2-carbonyl]amino]-3,3-dimethyl-butanoic Acid] gave a pEC50 of 5.92 and an Emax of 125%. Further, the “TECC24 AUC fold over DMSO @10 μM” value in assay [2] was “A (“A” refers to AUC @10 uM >6)”.

In the case of `CC(C)(C)[C@H](NC(=O)c1ccc2cc(F)ccc2c1OCC1CCCCC1)C(=O)O` [Example 45, (S)-2-(1-(cyclohexylmethoxy)-6-fluoro-2-naphthamido)-3,3-dimethylbutanoic Acid], in assay [1], the negative-log EC50 (pEC50) is 5.74 and the maximum response (Emax) stood at 94.7%. Also, the “TECC24 AUC fold over DMSO @10 μM” value in assay [2] is given as “C (“C” refers to AUC @10 uM <4)”.

In assay [1], `CC1(C(NC(=O)c2ccc3ccccc3c2OCc2ccc(S(F)(F)(F)(F)F)cc2)C(=O)O)CC1` (centres unmarked) [Example 68, 2-(1-methylcyclopropyl)-2-(1-((4-(pentafluoro-l6-sulfanyl)benzyl)oxy)-2-naphthamido)acetic Acid] showed a pEC50 of 5.72 and a maximal response (Emax) of 104%. Besides, the “TECC24 AUC fold over DMSO @10 μM” value in assay [2] is listed as “C (“C” refers to AUC @10 uM <4)”.

In assay [1], `O=C(N[C@H](C(=O)O)c1ccccc1)c1ccc2ccccc2c1OCc1ccc(C(F)(F)F)cc1` [Example 140, (S)-2-phenyl-2-(1-((4-(trifluoromethyl)benzyl)oxy)-2-naphthamido)acetic Acid] had a negative logarithm of the EC50 (pEC50) of 5.24 and an Emax of 82.9%. The “TECC24 AUC fold over DMSO @10 μM” value in assay [2] is “C (“C” refers to AUC @10 uM <4)”.

In assay [1], `CC(C)(S[C@@H]1C[C@@H]2CC[C@H]1C2)[C@H](NC(=O)c1ccc2cc(F)ccc2c1OCc1ccc(SC(F)(F)F)cc1)C(=O)O` [Example 177, (R)-3-(((1S,2R,4R)-bicyclo[2.2.1]heptan-2-yl)thio)-2-(6-fluoro-1-((4-((trifluoromethyl)thio)benzyl)oxy)-2-naphthamido)-3-methylbutanoic Acid] showed a negative-log EC50 (pEC50) of 6.15 and an Emax of 64.7%. In addition, the “TECC24 AUC fold over DMSO @10 μM” value in assay [2] is reported as “C (“C” refers to AUC @10 uM <4)”.

For the molecule `CCC1([C@H](NC(=O)c2ccc3ccc(Cl)cc3c2OCc2ccc(C(F)(F)F)cc2)C(=O)O)CCCC1` [Example 258], in assay [1], the Emax came to 264%. The “TECC24 AUC fold over DMSO @10 μM” value in assay [2] is listed as “A (“A” refers to AUC @10 uM >6)”.

Consider `CCC1([C@H](NC(=O)c2ccc3ccc(F)cc3c2OCc2ccc(OC(F)(F)F)cc2)C(=O)O)CCCC1` [Example 313, (S)-2-(1-ethylcyclopentyl)-2-(7-fluoro-1-((4-(trifluoromethoxy)benzyl)oxy)-2-naphthamido)acetic Acid], for which, in assay [1], the pEC50 was 6.52 and the Emax worked out at 152%. Moreover, the “TECC24 AUC fold over DMSO @10 μM” value in assay [2] is “A (“A” refers to AUC @10 uM >6)”.
